Assay [1] deals with recombinant human kappa opioid receptor (κ) (Homo sapiens (Human), UniProt P41145). The assay is described as follows: κ-opioid receptor radioligand binding assay ([3H]-U69,593). The note with it: binding affinity. As for the experimental part:
κ-Opioid Receptor Binding Assay Procedures: Membranes from HEK-293 cells, CHO cells or U-2 OS cells expressing the recombinant human kappa opioid receptor (κ) were prepared by lysing cells in ice cold hypotonic buffer (2.5 mM MgCl2, 50 mM HEPES, pH 7.4) (10 mL/10 cm dish) followed by homogenization with a tissue grinder/Teflon pestle. Membranes from a cell line naturally expressing kappa opioid receptor can also be used. Membranes were collected by centrifugation at 30,000×g for 15 min at 4° C. and pellets were resuspended in hypotonic buffer to a final concentration of 1-3 mg/mL. Protein concentrations were determined using the BioRad protein assay reagent with bovine serum albumen as standard. Aliquots of κ receptor membranes were stored at −80° C.
Radioligand dose displacement assays used 0.4 nM [^3H]-U69,593 (GE Healthcare, Piscataway, N.J.; 40 Ci/mmole) with 15 μg membrane protein (recombinant opioid receptor expressed in HEK 293 cells; in-house prep) in a final volume of 200 μl binding buffer (5% DMSO, 50 mM Trizma base, pH 7.4). Non-specific binding was determined in the presence of 10 μM unlabeled naloxone or U69,593. All reactions were performed in 96-well polypropylene plates for 1 hour at a temperature of about 25° C. Binding reactions were terminated by rapid filtration onto 96-well Unifilter GF/C filter plates (Perkin Elmer, Shelton, Conn.) presoaked in 0.5% polyethylenimine (Sigma). Harvesting was performed using a 96-well tissue harvester (Perkin Elmer, Shelton, Conn.) followed by five filtration washes with 200 μl ice-cold binding buffer. Filter plates were subsequently dried at 50° C. for 1-2 hours. Fifty μl/well scintillation cocktail (Perkin Elmer, Shelton, Conn.) was added and plates were counted in a Packard Top-Count for 1 min/well.

The target of assay [2] is T1, μ-opioid receptor (Homo sapiens (Human), UniProt P35372). Briefly: μ-opioid receptor [35S]GTPγS functional assay, HEK-293 or CHO cells (Table 4). The assay is classed as biochemical. The settings on record: for Emax: relative to DAMGO; for EC50: μ GTP. Summed up:
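Membranes from HEK-293, CHO or U-2 OS cells (or commercial) expressing recombinant μ receptor; 0.20 nM [35S]GTPγS, 3 mM GDP, saponin, in 100 mM NaCl/10 mM MgCl2/20 mM HEPES pH 7.4.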

Assay [3] concerns the target T2, κ-opioid receptor (Homo sapiens (Human), UniProt P41145). Briefly: κ-opioid receptor [35S]GTPγS functional assay, HEK-293 or CHO cells (Table 4). The assay is classed as biochemical. The settings on record: for Emax: relative to U69,593; for EC50: κ GTP. As for the experimental part: κ-Opioid Receptor Functional Assay Procedures: Functional [^35S]GTPγS binding assays were conducted as follows. κ opioid receptor membrane solution was prepared by sequentially adding final concentrations of 0.026 μg/μl κ membrane protein (in-house), 10 μg/mL saponin, 3 μM GDP and 0.20 nM [^35S]GTPγS to binding buffer (100 mM NaCl, 10 mM MgCl2, 20 mM HEPES, pH 7.4) on ice. The prepared membrane solution (190 μl/well) was transferred to 96-shallow well polypropylene plates containing 10 μl of 20× concentrated stock solutions of agonist prepared in DMSO. Plates were incubated for 30 min at a temperature of about 25° C. with shaking. Reactions were terminated by rapid filtration onto 96-well Unifilter GF/B filter plates (Perkin Elmer, Shelton, Conn.) using a 96-well tissue harvester (Packard) and followed by three filtration washes with 200 μl ice-cold binding buffer (10 mM NaH2PO4, 10 mM Na2HPO4, pH 7.4). Filter plates were subsequently dried at 50° C. for 2-3 hours. Fifty μl/well scintillation cocktail (Perkin Elmer, Shelton, Conn.) was added and plates were counted in a Packard Top-Count for 1 min/well.
κ GTP Emax (%) is the maximal effect elicited by a compound relative to the effect elicited by U69,593.
In TABLE 4, activity response of certain Compounds of the Invention to the μ- and κ-opioid receptors was determined as described above for functional assays using HEK-293 or CHO cells.
On the technique in general: Binding of GTPγS marks nucleotide exchange on a G protein.

Assay [4] deals with T1, μ-opioid receptor. Briefly: μ-opioid receptor [35S]GTPγS functional assay, U-2 OS cells (Table 5). The assay is classed as biochemical. The note with it: for Emax: relative to DAMGO; for EC50: μ GTP. In outline:
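Membranes (0.026 mg/mL) from cells expressing recombinant human μ-opioid receptor in a U-2 OS background were incubated with 0.20 nM [35S]GTPγS, 3 mM GDP and saponin in 20 mM HEPES pH 7.4, 100 mM NaCl, 10 mM MgCl2 for 30 min at about 25 °C. Filter-bound radioactivity counted; sigmoidal dose-response fits gave values, Emax relative to DAMGO.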

Assay [5] deals with T2, κ-opioid receptor. The assay is described as follows: κ-opioid receptor [35S]GTPγS functional assay, U-2 OS cells (Table 5). The assay is classed as biochemical. The note with it: for Emax: relative to U69,593; for EC50: κ GTP. Summed up:
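[35S]GTPγS binding in κ receptor membranes (0.026 μg/μl protein) with 10 μg/mL saponin, 3 μM GDP and 0.20 nM [35S]GTPγS in pH 7.4 HEPES/NaCl/MgCl2 buffer. Agonist incubation lasted 30 min at about 25 °C, followed by filtration and scintillation counting. Emax is expressed relative to U69,593.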

A value given as a limit tells only on which side of the number the result lay.

Broadly, the Ki is the dissociation constant of the complex between target and ligand, obtained from inhibition or displacement. As usually defined, the Emax is the maximal effect, on the per cent scale that the assay sets. A word on the EC50: it is the concentration at which the effect is half-maximal. A lower EC50 goes with an effect from little substance. As for `O=C(NCc1ccccc1)[C@H]1C[C@]23CCN(CC4CC4)[C@H](Cc4ccc(O)cc42)[C@]3(O)C1` [Compound 34, (2S,3aS,4R,9bS)-N-benzyl-12-(cyclopropylmethyl)-3a,8-dihydroxy-1,2,3,3a,4,5-hexahydro-4,9b-(epiminoethano)cyclopenta[a]naphthalene-2-carboxamide], in assay [1], the Ki was 0.083 ± 0.014 nM. For the same compound, the Emax was 40 ± 1.53% at μ-opioid receptor [2], 102 ± 2.73% at κ-opioid receptor [3], 94 ± 0.58% on μ-opioid receptor [4] and 93.3 ± 3.18% on κ-opioid receptor [5]. Also, the EC50 on μ-opioid receptor [2] worked out at 0.00375 ± 0.00066 µM; at κ-opioid receptor [3], 0.094 ± 0.011 nM; at μ-opioid receptor [4], 0.25 ± 0.027 nM; at κ-opioid receptor [5] it was 0.02 nM.

Turning to `O=C(NCc1ccc(O)cc1O)[C@@H]1C[C@]23CCN(CC4CC4)[C@H](Cc4ccc(O)cc42)[C@]3(O)C1` [Compound 41, (2R,3aS,4R,9bS)-12-(cyclopropylmethyl)-N-(2,4-dihydroxybenzyl)-3a,8-dihydroxy-1,2,3,3a,4,5-hexahydro-4,9b-(epimino-ethano)cyclopenta[a]naphthalene-2-carboxamide], the Emax at μ-opioid receptor [2] amounted to 1%; on κ-opioid receptor [3], 35.8 ± 3.07%; on μ-opioid receptor [4], 25.3 ± 1.33%; at κ-opioid receptor [5], 86.7 ± 6.74%. Moreover, the EC50 at μ-opioid receptor [2] (bound given in μM) was > 20 µM; at κ-opioid receptor [3], 1.74 ± 0.47 nM; at μ-opioid receptor [4], 4.19 ± 1.02 nM; on κ-opioid receptor [5], 1.02 ± 0.08 nM.

`O=C(NCc1ccc(Cl)c(Cl)c1)[C@@H]1C[C@]23CCN(CC4CC4)[C@H](Cc4ccc(O)cc42)[C@]3(O)C1` [Compound 46, (2R,3aS,4R,9bS)-12-(cyclopropylmethyl)-N-(3,4-dichlorobenzyl)-3a,8-dihydroxy-1,2,3,3a,4,5-hexahydro-4,9b-(epimino-ethano)cyclopenta[a]naphthalene-2-carboxamide]: the Emax was determined as 0% at μ-opioid receptor [2], 32 ± 5% at κ-opioid receptor [3], 38 ± 1.73% on μ-opioid receptor [4] and 106 ± 4.26% at κ-opioid receptor [5]. Also, the EC50 is > 20 µM on μ-opioid receptor [2] (bound given in μM), 0.2 ± 0.072 nM on κ-opioid receptor [3], 0.91 ± 0.05 nM at μ-opioid receptor [4] and 0.11 ± 0.01 nM on κ-opioid receptor [5].

As to `O=C(NCc1ccc(Cl)c(Cl)c1)[C@H]1C[C@]23CCN(CC4CC4)[C@H](Cc4ccc(O)cc42)[C@]3(O)C1` [Compound 47, (2S,3aS,4R,9bS)-12-(cyclopropylmethyl)-N-(3,4-dichlorobenzyl)-3a,8-dihydroxy-1,2,3,3a,4,5-hexahydro-4,9b-(epimino-ethano)cyclopenta[a]naphthalene-2-carboxamide], the maximum response (Emax) on μ-opioid receptor [2] turned out to be 86 ± 3.46%; at κ-opioid receptor [3] it was 88.8 ± 10%; at μ-opioid receptor [4] it was 98.8 ± 1.49%; on κ-opioid receptor [5], 95 ± 5.29%. Besides, the EC50 on μ-opioid receptor [2] is 0.00276 ± 8.2e-05 µM; on κ-opioid receptor [3] it was 0.03 ± 0.01 nM; at μ-opioid receptor [4] it was 0.05 ± 0.01 nM; at κ-opioid receptor [5], 0.015 nM.

As to `O=C(NCCN1CCOCC1)[C@H]1C[C@]23CCN(CC4CC4)[C@H](Cc4ccc(O)cc42)[C@]3(O)C1` [Compound 93, (2S,3aS,4R,9bS)-12-(cyclopropylmethyl)-3a,8-dihydroxy-N-(2-morpholinoethyl)-1,2,3,3a,4,5-hexahydro-4,9b-(epimino-ethano)cyclopenta[a]naphthalene-2-carboxamide], the Ki in assay [1] amounted to 0.64 ± 0.071 nM. In addition, at μ-opioid receptor [2], the maximal response (Emax) stood at 28.8 ± 4.91% and a half-maximal response (EC50) required 0.00395 ± 0.00065 µM. At κ-opioid receptor [3], this compound registered an Emax of 81.5 ± 1.27% and a concentration giving a half-maximal response (EC50) of 1.52 ± 0.17 nM.

The record behind these values is patent publication US9656962B2, “Ring-contracted morphinans and the use thereof” (Purdue Pharma L.P., priority 2013, dated 2017).
